Experimental data: patent US12637658B2, “Method for gene transfer into gamma-delta type T cell” (Mie University, priority 2018, dated 2026)

What was measured:
[1] = tested on: γδT cells; assay: Proliferation of γδT cells from peripheral blood monocytes with compound 7, IL-7 and IL-15; type: cell-based, human; details: for ratio of the γδT cells: Day 11
Procedure: The monocytes were prepared from peripheral blood of two healthy subjects by Ficoll. Personal agreement for the blood collection was achieved based on the research ethics code of the medical school of Mie University. The monocytes adjusted to 1.5×10^6 cells/mL with the culture solution of Yssel containing 10% human AB serum were cultured for one day in the presence of tetrakispivaloyloxymethyl 2-(thiazole-2-ylamino) ethylidene-1,1-bisphosphonate (compound 7, 1 μM), and then added with 25 ng/mL of IL-7 (Miltenyi Biotec, catalog number: 170-076-111) and 25 ng/mL of IL-15 (Miltenyi Biotec, catalog number: 170-076-114), and further cultured for 10 days. The frequency of the γδT cells in the monocyte population were analyzed by flow cytometry (FACSCANTO II, Becton Dickinson). As a result, the ratio of the γδT cells at the start of culture (Day 0) was 2.7% for donor 1 (HD1) and 1.7% for donor 2 (HD2), respectively. […] Peripheral blood of healthy human normally contains 1 to 3% of the γδT cells. However, approximately 1×10^8 of γδT cell populations could be prepared in high-purity from 1.5 mL of peripheral blood.
A culture solution of Yssel containing 10% human AB serum was used as the culture solution. As a result, rapid cell proliferation was observed from about Day 8 after the culture. The number of cells on Day 13 was 3×10^8, which was about 5000 times (FIG. 1B).
As comparison, IL-7 and IL-15 in the culture solution were replaced by IL-2 (PROLEUKIN, Chiron Therapeutics), and monocytes were cultured.

[2] = tested on: γδT cells; assay: Comparison of compound 7 with zoledronate: proliferation and purity of γδT cells (IL-2 culture); type: cell-based, human; details: for effect on cell proliferation: Day 8, IL-2 300 U/mL
Procedure: Peripheral blood monocytes were collected from healthy subjects (n=8, HD1 to HD8) in two experiments (n=4 in each experiment). On Day 0, 1.5×10^6 of the collected peripheral blood monocytes were added to each well of 24-well plate. […] Then, on Day 1, IL-2 (300 U/mL) was added. The IL-2 is a cytokine used for the proliferation of the γδT cells according to the reports (non-patent documents 5 and 6). On Day 6, the cells of one well were diluted 2-fold into two wells. The number of cells was counted. On Day 7, the cells of two wells were diluted 2-fold into four wells, and IL-2 (300 U/mL) was further added. On Day 8, half-volume (about 3 mL) of the cells were diluted 6-fold to 18 mL, and cultured in a T75 flask. On Day 8 and Day 11, the number of cells was counted and cell purity was measured by flow cytometry analysis.

[3] = compound 7 1 μM, IL-7 and IL-15 25 ng/mL
[4] = compound 7 1 μM vs zoledronate 5 μM

Molecule	start of rapid cell proliferation [1, 3]	γδT cell populations prepared in high-purity from 1.5 mL of peripheral blood [1, 3]	ratio of the γδT cells ([1]; donor 1 (HD1), compound 7 1 μM, IL-7 and IL-15 25 ng/mL, 2.7% at Day 0)	ratio of the γδT cells ([1]; donor 2 (HD2), compound 7 1 μM, IL-7 and IL-15 25 ng/mL, 1.7% at Day 0)	number of cells on Day 13 ([1]; from 3×10^6 monocytes (3 mL peripheral blood), compound 7 1 μM, IL-7 and IL-15 25 ng/mL)	fold increase of cells on Day 13 ([1]; from 3×10^6 monocytes, compound 7 1 μM, IL-7 and IL-15 25 ng/mL)	effect on cell proliferation [2, 4]	frequency of the γδT cells in lymphocyte fraction (P1) (Vd2/P1) ([2]; Day 8 and Day 11, compared to the zoledronate treatment group, t test)	cell proliferation-stimulating effect compared to zoledronate ([2]; Day 11, Experiment 1, subjects HD1 to HD4, compound 7 1 μM vs zoledronate 5 μM)	cell proliferation-stimulating effect compared to zoledronate ([2]; Day 11, Experiment 2, subject)	cell proliferation-stimulating effect compared to zoledronate ([2]; Day 11, Experiment 2, subject HD8)	cell proliferation-stimulating effect compared to zoledronate ([2]; Day 11, Experiment 2, subjects HD6 and HD7)	proliferation of γδT cells compared to zoledronate, average ([2]; Day 11, Experiments 1 and 2, n=8, p=0.008, t test)	frequency of the γδT cells in CD3 positive cells (Vd2/CD3) ([2]; compared to the zoledronate treatment group, t test)	effect of promoting cell proliferation by IL-7 and IL-15 on further addition of IL-2 ([1]; monocytes stimulated with compound 7)
CC(C)(C)C(=O)OCOP(=O)(OCOC(=O)C(C)(C)C)C(CNc1nccs1)P(=O)(OCOC(=O)C(C)(C)C)OCOC(=O)C(C)(C)C [compound 7, tetrakispivaloyloxymethyl 2-(thiazole-2-ylamino)ethylidene-1,1-bisphosphonate]	~8 days	approximately 1×10^8	97.1%	94.5%	3×10^8	about 5000 times	almost no difference	significantly higher	strongly recognized	the same level	weak	greater	significantly excellent	significantly higher	
IL-2: interleukin-2 (PROLEUKIN, Chiron Therapeutics), cytokine used for proliferation of γδT cells															not further increased
O=P(O)(O)C(O)(Cn1ccnc1)P(=O)(O)O [zoledronate, reference compound]							almost no difference								
